pIC50, pKi: −log10 of the molar value.

Here are results for five molecules from patent publication US11458213B2, “Prostate-specific membrane antigen targeted high-affinity agents for endoradiotherapy of prostate cancer” (THE JOHNS HOPKINS UNIVERSITY, priority 2016, dated 2022).

Data set [1] has as its target prostate-specific membrane antigen (PSMA) (Homo sapiens, UniProt Q04609). Description: Binding affinities of the representative agents (PSMA).
The next data set can be described thus: LogP octanol/water. The class given is physicochemical.
The subject of another data set is PSMA+ PC3 PIP cells. Description: Cell binding, uptake and internalization in PSMA+ PC3 PIP cells. The class given is cell-based.
For data set [2], the system named is PSMA-negative PC3 flu cells. Description: Cell uptake in PSMA-negative PC3 flu cells. The class given is cell-based. The note with it: 4 h incubation, n = 3.

Chain of prostate-specific membrane antigen (PSMA) (Q04609 whole entry): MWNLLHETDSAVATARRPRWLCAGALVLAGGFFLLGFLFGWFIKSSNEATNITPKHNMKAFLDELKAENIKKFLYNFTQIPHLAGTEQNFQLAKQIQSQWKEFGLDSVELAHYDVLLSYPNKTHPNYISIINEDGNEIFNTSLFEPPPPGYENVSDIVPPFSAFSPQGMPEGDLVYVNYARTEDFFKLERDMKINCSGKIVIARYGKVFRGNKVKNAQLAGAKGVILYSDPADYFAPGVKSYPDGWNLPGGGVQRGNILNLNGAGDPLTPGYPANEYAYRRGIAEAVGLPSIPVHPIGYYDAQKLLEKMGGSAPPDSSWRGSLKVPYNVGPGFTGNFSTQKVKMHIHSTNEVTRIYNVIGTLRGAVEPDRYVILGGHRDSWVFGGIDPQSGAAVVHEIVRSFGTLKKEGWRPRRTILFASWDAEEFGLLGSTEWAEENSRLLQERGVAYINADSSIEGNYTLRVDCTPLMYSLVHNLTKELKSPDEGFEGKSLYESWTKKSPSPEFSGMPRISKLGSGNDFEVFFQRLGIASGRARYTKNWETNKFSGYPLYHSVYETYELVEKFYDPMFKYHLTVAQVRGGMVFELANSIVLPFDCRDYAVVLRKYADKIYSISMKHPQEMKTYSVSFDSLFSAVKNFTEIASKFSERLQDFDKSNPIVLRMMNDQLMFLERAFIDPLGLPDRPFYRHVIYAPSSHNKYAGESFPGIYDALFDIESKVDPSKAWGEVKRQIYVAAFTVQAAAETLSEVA

With `O=C(O)CC[C@H](NC(=O)N[C@@H](CCCCN(Cc1ccc(Br)cc1)C(=O)CCCCNC(=S)Nc1ccc(CC2CN(CC(=O)O)CCN(CC(=O)O)CCN(CC(=O)O)CCN2CC(=O)O)cc1)C(=O)O)C(=O)O` (stereo partly drawn) [Compound 1], in data set [1], the pIC50 is 9.24, the pKi is 8.94 and the “binding affinity for PSMA (in words)” value is “higher binding affinity compared to 3”. This molecule displayed a LogPoct/water in the data set “LogP octanol/water” of −3.0.

`O=C(O)CC[C@H](NC(=O)N[C@@H](CCCCN(Cc1ccc(Br)cc1)C(=O)CCCCNC(=O)CN1CCN(CC(=O)O)CCN(CC(=O)O)CCN(CC(=O)O)CC1)C(=O)O)C(=O)O` [Compound 2]: in data set [1], the negative logarithm of the IC50 (pIC50) is 9.19, the pKi was 8.89 and the “binding affinity for PSMA (in words)” value is reported as “higher binding affinity compared to 3”. The same molecule registered a LogPoct/water in the data set “LogP octanol/water” of −3.53.

In data set [1], `O=C(O)CC[C@H](NC(=O)N[C@@H](CCCCNC(=O)CCCCNC(=S)Nc1ccc(CC2CN(CC(=O)O)CCN(CC(=O)O)CCN(CC(=O)O)CCN2CC(=O)O)cc1)C(=O)O)C(=O)O` (stereo partly drawn) [Compound 3] gave a pIC50 of 8.67 and a pKi of 9.37. This molecule registered a LogPoct/water in the data set “LogP octanol/water” of −3.2.

With `O=C([O-])CN1CCN(CC(=O)[O-])CCN(CC(=O)NCCCCC(=O)N(CCCC[C@H](NC(=O)N[C@@H](CCC(=O)O)C(=O)O)C(=O)O)Cc2ccc(Br)cc2)CCN(CC(=O)[O-])CC1.[177Lu+3]` [^177Lu-2], the “Cell uptake PSMA + PC3 PIP” value with PSMA+ PC3 PIP cells (4 h incubation, n = 3) was 40.6 percent incubated dose per one million cells. Moreover, in the data set on PSMA+ PC3 PIP cells (compared to ^177Lu-3), the “uptake in PSMA+ PC3 cells (in words)” value is “higher uptake in PSMA+ PC3 cells compared to ^177Lu-3”. In addition, the “Cell uptake PSMA − PC3 flu” value in data set [2] is 0.12 percent incubated dose per one million cells.

`O=C([O-])CN1CCN(CC(=O)[O-])CCN(CC(=O)O)C(Cc2ccc(NC(=S)NCCCCC(=O)NCCCC[C@H](NC(=O)N[C@@H](CCC(=O)O)C(=O)O)C(=O)O)cc2)CN(CC(=O)[O-])CC1.[177Lu+3]` (stereo partly drawn) [^177Lu-3]: in the data set with PSMA+ PC3 PIP cells (4 h incubation, n = 3), the Cell surface is reported as 12.50 percent incubated dose per one million cells, the “Cell uptake PSMA + PC3 PIP” value is on record as 24.50 percent incubated dose per one million cells and the “Internalization (cell lysate)” value was 8.75 percent incubated dose per one million cells. Further, the “Cell uptake PSMA − PC3 flu” value in data set [2] is listed as 0.05 percent incubated dose per one million cells.
